The source of these data is patent US20240299385A1 (ReWind Therapeutics NV, priority 2021, published 2024).

Bounds are passed on as bounds.

The target in this assay is T1, human GPR17 receptor (Homo sapiens, UniProt Q13304).
T1 construct: host or cells: HEK-293
T1 sequence (Q13304 whole entry): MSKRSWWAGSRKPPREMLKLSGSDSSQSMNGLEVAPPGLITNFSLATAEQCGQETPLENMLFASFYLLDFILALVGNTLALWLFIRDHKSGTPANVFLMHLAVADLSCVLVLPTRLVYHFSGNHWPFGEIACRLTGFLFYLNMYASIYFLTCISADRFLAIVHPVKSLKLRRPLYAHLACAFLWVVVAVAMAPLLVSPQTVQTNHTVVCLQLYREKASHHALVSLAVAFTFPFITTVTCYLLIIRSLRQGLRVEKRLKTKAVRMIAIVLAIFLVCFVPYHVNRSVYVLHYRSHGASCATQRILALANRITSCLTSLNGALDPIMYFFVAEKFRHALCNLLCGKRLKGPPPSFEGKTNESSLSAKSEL
Nature of the assay: Calcium mobilization functional assay (Fluo-8, FLIPR TETRA) in HEK-293 hGPR17 (Gα-q assay). The conditions noted are these: antagonism of MDL29,951 (~EC80) induced Ca2+ signal; cell line (HEK-293 hGPR17 or HEK-293 Suchi5 hGPR17) not given. Format: cell-based. In outline:
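Fluo-8-loaded HEK-293 hGPR17 cells (60 min dye loading, room temperature) were preincubated with compound for twenty minutes, then challenged with agonist MDL29,951 at ~EC80, 500 nM. Intracellular calcium release via Gα-q was recorded as FLIPR fluorescence for a further 2 minutes; compounds tested in duplicate.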
Regarding `O=S(=O)(Nc1cc(F)c(OC(F)F)cc1F)c1c[nH]c(-c2ccccc2Cl)c1` [Cpd 526, 5-(2-chlorophenyl)-N-[4-(difluoromethoxy)-2,5-difluorophenyl]-1H-pyrrole-3-sulfonamide], the IC50 lay within 500 to 5000 nM.
In the case of `O=S(=O)(Nc1cc(F)c(Br)cc1F)c1c[nH]c(-c2cccc(Cl)n2)c1` [Cpd 527, N-(4-bromo-2,5-difluorophenyl)-5-(6-chloropyridin-2-yl)-1H-pyrrole-3-sulfonamide], the IC50 was less than 500 nM.
Under `O=S(=O)(Nc1cc(F)c(Br)cc1F)c1c[nH]c(-c2cccc(Br)n2)c1` [Cpd 528, N-(4-bromo-2,5-difluorophenyl)-5-(6-bromopyridin-2-yl)-1H-pyrrole-3-sulfonamide] stands less than 500 nM; under `CCc1cc(NS(=O)(=O)c2c[nH]c(-c3ccccc3)c2)c(F)cc1C#N` [Cpd 529, N-(4-cyano-5-ethyl-2-fluorophenyl)-5-phenyl-1H-pyrrole-3-sulfonamide], less than 500 nM; under `COc1ccccc1-c1cc(S(=O)(=O)Nc2cc(F)c(OC(F)F)cc2F)c[nH]1` [Cpd 530, N-[4-(difluoromethoxy)-2,5-difluorophenyl]-5-(2-methoxyphenyl)-1H-pyrrole-3-sulfonamide], less than 500 nM.
`COc1c(F)cccc1-c1cc(S(=O)(=O)Nc2cc(F)c(OC(F)F)cc2F)c[nH]1` [Cpd 531, N-[4-(difluoromethoxy)-2,5-difluorophenyl]-5-(3-fluoro-2-methoxyphenyl)-1H-pyrrole-3-sulfonamide]: the IC50 was less than 500 nM.
Consider `COc1ccccc1-c1cc(S(=O)(=O)Nc2cc(F)c(Br)cc2F)c[nH]1` [Cpd 532, N-(4-bromo-2,5-difluorophenyl)-5-(2-methoxyphenyl)-1H-pyrrole-3-sulfonamide], for which the IC50 lay within 500 to 5000 nM.
On to `O=S(=O)(Nc1cc(F)c(Br)cc1F)c1c[nH]c(-c2ccccc2Cl)c1` [Cpd 533, N-(4-bromo-2,5-difluorophenyl)-5-(2-chlorophenyl)-1H-pyrrole-3-sulfonamide], for which the IC50 fell in the range of 500 to 5000 nM.
As for `O=S(=O)(Nc1cc(F)c(Br)cc1F)c1c[nH]c(-c2cccc3cccnc23)c1` [Cpd 534, N-(4-bromo-2,5-difluorophenyl)-5-quinolin-8-yl-1H-pyrrole-3-sulfonamide], the IC50 was in the range of 500 to 5000 nM.
For `N#Cc1ccc(NS(=O)(=O)c2c[nH]cc2Cc2ccc(F)c(F)c2)c(F)c1` [Cpd 535, N-(4-cyano-2-fluorophenyl)-4-[(3,4-difluorophenyl)methyl]-1H-pyrrole-3-sulfonamide], the IC50 is less than 500 nM.
As to `COc1cc(Cc2c[nH]cc2S(=O)(=O)Nc2ccc(C#N)cc2F)ccc1F` [Cpd 536, N-(4-cyano-2-fluorophenyl)-4-[(4-fluoro-3-methoxyphenyl)methyl]-1H-pyrrole-3-sulfonamide], the IC50 was less than 500 nM.
Then `O=S(=O)(Nc1cc(F)c(CO)cc1F)c1c[nH]c(-c2ccccc2)c1` [Cpd 537, N-[2,5-difluoro-4-(hydroxymethyl)phenyl]-5-phenyl-1H-pyrrole-3-sulfonamide], with 500 to 5000 nM; and `Cc1ncc(-c2cc(S(=O)(=O)Nc3cc(F)c(C(F)(F)F)cc3F)c[nH]2)s1` [Cpd 538, N-[2,5-difluoro-4-(trifluoromethyl)phenyl]-5-(2-methyl-1,3-thiazol-5-yl)-1H-pyrrole-3-sulfonamide], with 500 to 5000 nM.
`COc1sccc1-c1cc(S(=O)(=O)Nc2cc(F)c(C(F)(F)F)cc2F)c[nH]1` [Cpd 539, N-[2,5-difluoro-4-(trifluoromethyl)phenyl]-5-(2-methoxythiophen-3-yl)-1H-pyrrole-3-sulfonamide]: the IC50 was less than 500 nM.
In the case of `Cn1cc2cccc(-c3cc(S(=O)(=O)Nc4cc(F)c(C(F)(F)F)cc4F)c[nH]3)c2n1` [Cpd 540, N-[2,5-difluoro-4-(trifluoromethyl)phenyl]-5-(2-methylindazol-7-yl)-1H-pyrrole-3-sulfonamide], the IC50 is 500 to 5000 nM.
Consider `N#Cc1cccc(-c2cc(S(=O)(=O)Nc3cc(F)c(Br)cc3F)c[nH]2)c1` [Cpd 541, N-(4-bromo-2,5-difluorophenyl)-5-(3-cyanophenyl)-1H-pyrrole-3-sulfonamide], for which the IC50 was less than 500 nM.
Under `N#Cc1ccc(NS(=O)(=O)c2c[nH]c(-c3cccc(F)c3OC3CC3)c2)c(F)c1` [Cpd 542, N-(4-cyano-2-fluorophenyl)-5-(2-cyclopropyloxy-3-fluorophenyl)-1H-pyrrole-3-sulfonamide] stands less than 500 nM; under `N#Cc1ccc(NS(=O)(=O)c2c[nH]c(-c3ncc(F)cc3F)c2)c(F)c1` [Cpd 543, N-(4-cyano-2-fluorophenyl)-5-(3,5-difluoropyridin-2-yl)-1H-pyrrole-3-sulfonamide], less than 500 nM.
Regarding `COc1c(F)cccc1-c1cc(S(=O)(=O)Nc2cc(F)c(Br)cc2F)c[nH]1` [Cpd 544, N-(4-bromo-2,5-difluorophenyl)-5-(3-fluoro-2-methoxyphenyl)-1H-pyrrole-3-sulfonamide], the IC50 was less than 500 nM.
As to `N#Cc1ccc(NS(=O)(=O)c2c[nH]cc2Cc2ccc(F)c(Cl)c2)c(F)c1` [Cpd 545, 4-[(3-chloro-4-fluorophenyl)methyl]-N-(4-cyano-2-fluorophenyl)-1H-pyrrole-3-sulfonamide], the half-inhibitory concentration (IC50) is less than 500 nM.
As to `N#Cc1ccc(NS(=O)(=O)c2c[nH]cc2Cc2cc(F)cc(F)c2)c(F)c1` [Cpd 546, N-(4-cyano-2-fluorophenyl)-4-[(3,5-difluorophenyl)methyl]-1H-pyrrole-3-sulfonamide], the IC50 is less than 500 nM.
Under `COc1cc(F)cc(Cc2c[nH]cc2S(=O)(=O)Nc2ccc(C#N)cc2F)c1` [Cpd 547, N-(4-cyano-2-fluorophenyl)-4-[(3-fluoro-5-methoxyphenyl)methyl]-1H-pyrrole-3-sulfonamide] stands 500 to 5000 nM; under `N#Cc1cc(F)c(NS(=O)(=O)c2c[nH]cc2Cc2cccc(OC(F)F)c2)cc1F` [Cpd 548, N-(4-cyano-2,5-difluorophenyl)-4-[[3-(difluoromethoxy)phenyl]methyl]-1H-pyrrole-3-sulfonamide], less than 500 nM.
Take `N#Cc1cc(F)c(NS(=O)(=O)c2c[nH]c(C3CCC3)c2)cc1F` [Cpd 549, N-(4-cyano-2,5-difluorophenyl)-5-cyclobutyl-1H-pyrrole-3-sulfonamide]: the IC50 is less than 500 nM.
In the case of `O=S(=O)(Nc1cc(F)c(OC(F)F)cc1F)c1c[nH]c(C2CCC2)c1` [Cpd 550, 5-cyclobutyl-N-[4-(difluoromethoxy)-2,5-difluorophenyl]-1H-pyrrole-3-sulfonamide], the IC50 was less than 500 nM.
Take `O=S(=O)(Nc1cc(F)c(Br)cc1F)c1c[nH]c(C2CCC2)c1` [Cpd 551, N-(4-bromo-2,5-difluorophenyl)-5-cyclobutyl-1H-pyrrole-3-sulfonamide]: the IC50 was less than 500 nM.
Regarding `O=S(=O)(Nc1cc(F)c(OC(F)F)cc1F)c1c[nH]c(-c2cccc3cccnc23)c1` [Cpd 552, N-[4-(difluoromethoxy)-2,5-difluorophenyl]-5-quinolin-8-yl-1H-pyrrole-3-sulfonamide], the IC50 was 500 to 5000 nM.
Then `O=S(=O)(Nc1cc(F)c(OC(F)F)cc1F)c1c[nH]c(-c2cccc3ccoc23)c1` [Cpd 553, 5-(1-benzofuran-7-yl)-N-[4-(difluoromethoxy)-2,5-difluorophenyl]-1H-pyrrole-3-sulfonamide], with 500 to 5000 nM; and `N#Cc1ccc(F)c(-c2cc(S(=O)(=O)Nc3cc(F)c(C(F)(F)F)cc3F)c[nH]2)c1` [Cpd 554, 5-(5-cyano-2-fluorophenyl)-N-[2,5-difluoro-4-(trifluoromethyl)phenyl]-1H-pyrrole-3-sulfonamide], with less than 500 nM; and `Cn1cccc(-c2cc(S(=O)(=O)Nc3cc(F)c(C(F)(F)F)cc3F)c[nH]2)c1=O` [Cpd 555, N-[2,5-difluoro-4-(trifluoromethyl)phenyl]-5-(1-methyl-2-oxopyridin-3-yl)-1H-pyrrole-3-sulfonamide], with less than 500 nM.
On to `O=S(=O)(Nc1cc(F)c(C(F)(F)F)cc1F)c1c[nH]c(-c2cnccc2Cl)c1` [Cpd 556, 5-(4-chloropyridin-3-yl)-N-[2,5-difluoro-4-(trifluoromethyl)phenyl]-1H-pyrrole-3-sulfonamide], for which the IC50 is less than 500 nM.
Regarding `O=S(=O)(Nc1cc(F)c(C(F)(F)F)cc1F)c1c[nH]c(-c2c(F)ccnc2F)c1` [Cpd 557, 5-(2,4-difluoropyridin-3-yl)-N-[2,5-difluoro-4-(trifluoromethyl)phenyl]-1H-pyrrole-3-sulfonamide], the IC50 is less than 500 nM.
Under `O=S(=O)(Nc1cc(F)c(C(F)(F)F)cc1F)c1c[nH]cc1Cc1cccc(OC(F)F)c1` [Cpd 558, 4-[[3-(difluoromethoxy)phenyl]methyl]-N-[2,5-difluoro-4-(trifluoromethyl)phenyl]-1H-pyrrole-3-sulfonamide] stands 500 to 5000 nM; under `O=S(=O)(Nc1cc(F)c(C(F)(F)F)cc1F)c1c[nH]c(-c2cnsc2)c1` [Cpd 559, N-[2,5-difluoro-4-(trifluoromethyl)phenyl]-5-(1,2-thiazol-4-yl)-1H-pyrrole-3-sulfonamide], less than 500 nM.
Turning to `COCc1cccnc1-c1cc(S(=O)(=O)Nc2cc(F)c(C(F)(F)F)cc2F)c[nH]1` [Cpd 560, N-[2,5-difluoro-4-(trifluoromethyl)phenyl]-5-[3-(methoxymethyl)pyridin-2-yl]-1H-pyrrole-3-sulfonamide], the IC50 lay within 5000 to 50000 nM.
With `O=S(=O)(Nc1cc(F)c(Br)cc1F)c1c[nH]c(-c2cccc3ccoc23)c1` [Cpd 561, 5-(1-benzofuran-7-yl)-N-(4-bromo-2,5-difluorophenyl)-1H-pyrrole-3-sulfonamide], the IC50 was in the range of 500 to 5000 nM.
As to `N#Cc1ccc(NS(=O)(=O)c2c[nH]c(-c3csc(Cl)c3)c2)c(F)c1` [Cpd 562, 5-(5-chlorothiophen-3-yl)-N-(4-cyano-2-fluorophenyl)-1H-pyrrole-3-sulfonamide], the IC50 was less than 500 nM.
As for `N#Cc1ccc(NS(=O)(=O)c2c[nH]c(-c3cc(Cl)cs3)c2)c(F)c1` [Cpd 563, 5-(4-chlorothiophen-2-yl)-N-(4-cyano-2-fluorophenyl)-1H-pyrrole-3-sulfonamide], the IC50 was less than 500 nM.

Usually IC50 stands for the concentration that gives 50% inhibition.
